# Measurements reported in patent US11787792B2, “5-[[4-[[morpholin-2-yl]methylamino]-5-(trifluoromethyl)-2 Pyridyl]Amino]Pyrazine-2-carbonitrile and therapeutic uses thereof” (priority 2012, dated 2023).
# Columns and labels:
# Assay type in all cases: cell-based
# HT29 cells [1] = experiment: Cellular potency in Mitosis Inhibition Assay (MIA), checkpoint abrogation after etoposide; details: for IC50: Homo sapiens, HT-29, HT29 cells, etoposide pre-treatment, nocodazole, read-out: CHK1 Cellular Potency MIA IC50; for (fold better) Compound 1, CHK1 cellular potency MIA: fold by which Compound 1 is more potent than the compound; for (fold better) Compound 2, CHK1 cellular potency MIA: fold by which Compound 2 is more potent than the compound
# Description: Assay 2: Cellular Potency in Mitosis Inhibition Assay (MIA)
# Checkpoint abrogation by CHK1 kinase function inhibitors in combination with genotoxic agents was assessed using a europium based ELISA assay designed to quantify the number of cells trapped in mitosis after treatment with a genotoxic agent (to induce G2 arrest) followed by a CHK1 inhibitor test compound in combination with nocodazole to abrogate this arrest. HT29 cells were seeded at 10^4 cells per well into 96-well plates in a volume of 160 μL and left to attach for 36 hours. […] After genotoxic drug exposure, the medium was removed and replaced with fresh medium (160 μL). […] CHK1 inhibitor test compounds were added in 40 μL aliquots using quadruplicate wells for each concentration. After 21 hours exposure, the medium was removed and cells were fixed in 4% formaldehyde in phosphate buffered saline (PBS, pH 7.4, pre-cooled to 4° C.) for 30 minutes at 4° C., followed by 100% methanol (pre-cooled to −20° C.) for 10 minutes at ambient temperature. Wells were washed with PBS and blocked with 5% dried milk (Marvel) in Tris-buffered saline (TBS, pH 7.4) at 37° C. for 30 minutes. Each well was washed three times with water containing 0.1% Tween 20. […] Primary antibody was removed and wells were washed with water containing 0.1% Tween 20.
# Europium emissions were counted on a Wallac, Victor2 counter (Perkin-Elmer, Bucks UK).
# HT29 cells [2] = experiment: Selectivity in cells for CHK1-dependent checkpoint abrogation versus cytotoxicity (Activity Index = SRB IC50/MIA IC50); details: for (fold better) Compound 1, cellular selectivity: fold by which Compound 1 is more selective than the row's compound; for (fold better) Compound 2, cellular selectivity: fold by which Compound 2 is more selective than the row's compound
# Description: Assay 3: Assessment of Selectivity in Cells for CHK1-Dependent Checkpoint Abrogation Versus Cytotoxicity
# Compound cytotoxicity was assessed using a 96 hour sulforhodamine B assay (SRB, Sigma catalog number S9012). HT29 or SW620 cells were seeded at 1.6 to 3.2×10^3 cells per well in 96-well plates in a volume of 160 μL medium and allowed to attach for 36 hours prior to treatment. […] Cells were incubated for 96 hours (four doublings) at 37° C. in a humidified 5% CO2 environment and then fixed and stained with SRB.
# The Activity Index (AI), a measure of the selectivity of the CHK1 inhibitor test compounds for effecting CHK1-dependent checkpoint abrogation versus cytotoxicity was calculated from the ratio of the CHK1 inhibitor cytotoxicity IC50 versus the MIA IC50 (i.e., AI=CHK1 inhibitor SRB IC50/MIA IC50), both measured in HT29 cells.
# HT29 cells [3] = experiment: Cellular efficacy in combination with SN38 (SRB potentiation assay); details: SRB IC50/Potentiation IC50, HT29 cells, SN38 at its IC50, 96 hours
# Description: Assay 4: Cellular Efficacy in HT29 or SW620 Colon Carcinoma Cells in Combination with SN38 or Gemcitabine
# HT29 or SW620 cells were seeded at 1.6 to 3.2×10^3 cells per well in 96-well plates in a volume of 160 μL medium and allowed to attach for 36 hours prior to treatment.
# The Potentiation Index (PI) was calculated as a measure of the ability of the CHK1 inhibitor to enhance SN38 or gemcitabine cytotoxicity and was defined as the ratio of the Cytotoxicity IC50 of the CHK1 inhibitor alone versus the Potentiation IC50 of the CHK1 inhibitor combined with the genotoxic (i.e., PI=CHK1 inhibitor SRB IC50/Potentiation IC50).
Structure (SMILES),IC50 (HT29 cells [1]),"(fold better) Compound 1, CHK1 cellular potency MIA (HT29 cells [1])","(fold better) Compound 2, CHK1 cellular potency MIA (HT29 cells [1])","(fold better) Compound 1, cellular selectivity (HT29 cells [2])","(fold better) Compound 2, cellular selectivity (HT29 cells [2])",Cell Efficacy + SN38 in HT29 cells (Potentiation Index) (HT29 cells [3])
COCCOc1ccc(-c2cnc(Nc3cnc(C#N)cn3)cc2NC[C@@H]2CNCCO2)cc1 [Compound Y-149],1.1 µM,~34 fold,~61 fold,~7.4 fold,~43 fold,–
"N#Cc1cnc(Nc2cc(NC[C@H]3CNCCO3)c(C(F)(F)F)cn2)cn1 [Compound 1, 5-[[4-[[(2R)-Morpholin-2-yl]methylamino]-5-(trifluoromethyl)-2-pyridyl]amino]pyrazine-2-carbonitrile]",0.03 µM,–,–,–,–,–
"N#Cc1cnc(Nc2cc(NC[C@@H]3CNCCO3)c(C(F)(F)F)cn2)cn1 [Compound 2, 5-[[4-[[(2S)-Morpholin-2-yl]methylamino]-5-(trifluoromethyl)-2-pyridyl]amino]pyrazine-2-carbonitrile]",0.018 µM,–,–,–,–,–
N#Cc1cnc(Nc2cc(NCC3CNCCO3)c(C(=O)Nc3ccccc3)cn2)cn1 (stereo not shown) [Compound Y-102],0.8 µM,~27 fold,~44 fold,~5.6 fold,~33 fold,–
COCC#Cc1cnc(Nc2cnc(C#N)cn2)cc1NC[C@@H]1CNCCO1 [Compound Y-154],0.09 µM,–,–,–,–,–
COC(C)(C)C#Cc1cnc(Nc2cnc(C#N)cn2)cc1NC[C@@H]1CNCCO1 [Compound Y-155],0.12 µM,~4 fold,~7 fold,~2.4 fold,~13 fold,0.9 fold
COCCCc1cnc(Nc2cnc(C#N)cn2)cc1NC[C@H]1CNCCO1 [Compound Y-159],0.7 µM,–,–,–,–,–
COCc1ccc(-c2cnc(Nc3cnc(C#N)cn3)cc2NC[C@H]2CNCCO2)cc1 [Compound Y-156],0.56 µM,~19 fold,~31 fold,~4.8 fold,~28 fold,1.6 fold
COCc1ccc(-c2cnc(Nc3cnc(C#N)cn3)cc2NC[C@@H]2CNCCO2)cc1 [Compound Y-148],0.9 µM,~30 fold,~50 fold,~5.9 fold,~34 fold,–
COCCOc1ccc(-c2cnc(Nc3cnc(C#N)cn3)cc2NC[C@H]2CNCCO2)cc1 [Compound Y-157],0.6 µM,~20 fold,~33 fold,~4.1 fold,~24 fold,2 fold
